Patent US6908935B2, “Calcium receptor modulating agents” (Amgen Inc., priority 2002, dated 2005)

Molecular target: T1, human parathyroid cell Ca^2+ receptor (hPCaR) (Homo sapiens, UniProt P41180)
T1 construct: expressed in transfected cells
T1 sequence (P41180 20-1078): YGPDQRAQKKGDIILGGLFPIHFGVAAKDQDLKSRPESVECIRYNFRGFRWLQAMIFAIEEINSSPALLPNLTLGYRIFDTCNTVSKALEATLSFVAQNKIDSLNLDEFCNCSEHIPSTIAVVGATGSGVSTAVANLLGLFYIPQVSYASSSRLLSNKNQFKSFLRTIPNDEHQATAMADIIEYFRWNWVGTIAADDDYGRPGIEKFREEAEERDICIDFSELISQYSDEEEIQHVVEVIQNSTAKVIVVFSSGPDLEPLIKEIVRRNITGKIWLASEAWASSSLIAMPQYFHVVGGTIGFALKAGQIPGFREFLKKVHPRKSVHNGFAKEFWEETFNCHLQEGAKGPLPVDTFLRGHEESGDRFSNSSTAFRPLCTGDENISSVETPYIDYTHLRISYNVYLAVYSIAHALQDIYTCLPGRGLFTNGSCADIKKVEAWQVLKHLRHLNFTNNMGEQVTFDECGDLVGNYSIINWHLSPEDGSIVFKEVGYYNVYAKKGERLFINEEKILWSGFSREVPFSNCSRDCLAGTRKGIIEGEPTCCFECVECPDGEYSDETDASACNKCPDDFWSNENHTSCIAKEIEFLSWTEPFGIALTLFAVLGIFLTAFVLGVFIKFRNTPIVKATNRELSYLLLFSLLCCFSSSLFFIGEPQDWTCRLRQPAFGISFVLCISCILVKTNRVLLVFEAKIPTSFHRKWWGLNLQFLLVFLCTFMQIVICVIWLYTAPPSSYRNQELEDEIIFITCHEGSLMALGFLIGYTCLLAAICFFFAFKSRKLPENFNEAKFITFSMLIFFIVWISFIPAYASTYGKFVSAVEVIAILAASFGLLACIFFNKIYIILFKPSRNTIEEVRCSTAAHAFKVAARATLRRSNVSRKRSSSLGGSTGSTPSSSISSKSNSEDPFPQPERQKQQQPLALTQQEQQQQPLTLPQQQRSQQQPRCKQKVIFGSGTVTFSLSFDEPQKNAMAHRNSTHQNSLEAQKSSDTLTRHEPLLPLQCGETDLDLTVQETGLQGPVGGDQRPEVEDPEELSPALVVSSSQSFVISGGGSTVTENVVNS
Assay: [Ca2+]i measurement with fluo-3 in HEK 293 4.0-7 cells stably transfected with hPCaR
Format: cell-based
Details: fluo-3 fluorescence (485/530 nm), effect on [Ca^2+]i
Summary of the method: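 HEK 293 cells stably expressing human parathyroid Ca2+ receptor (clone 4.0-7), loaded with 2 μM fluo-3 AM for 30 min at 37 °C in parathyroid cell buffer (pH 7.45) with 1 mM CaCl2 and 0.5% BSA. After compound addition, intracellular Ca2+ followed by fluorescence at 485 nm excitation/530 nm emission.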

`COc1ccc(CN[C@H](C)c2ccccc2)cc1-c1ccc(OCC2CCCO2)nc1` (stereo partly drawn) [(1R)-N-((4-(methyloxy)-3-(6-((tetrahydro-2-furanylmethyl)oxy)-3-pyridinyl)phenyl)methyl)-1-phenylethanamine] was tested, and the EC50 was ≤ 10 µM.

For `COc1ccc(-c2cc(CN[C@H](C)c3ccc4ccccc4c3)ccc2OC)nn1` [(1R)-N-((4-(methyloxy)-3-(6-(methyloxy)-3-pyridazinyl)phenyl)methyl)-1-(2-naphthalenyl)ethanamine], the EC50 was ≤ 10 µM.

In the case of `COc1cccc([C@@H](C)NCc2ccc(OC)c(-c3ccc(OC)nn3)c2)c1` [(1R)-N-((4-(methyloxy)-3-(6-(methyloxy)-3-pyridazinyl)phenyl)methyl)-1-(3-(methyloxy)phenyl)ethanamine], the EC50 is reported as ≤ 10 µM.

With `COc1ccc([C@@H](C)NCc2ccc(OC)c(-c3ccc(OC)nn3)c2)cc1` [(1R)-N-((4-(methyloxy)-3-(6-(methyloxy)-3-pyridazinyl)phenyl)methyl)-1-(4-(methyloxy)phenyl)ethanamine] the EC50 was ≤ 10 µM.

In the case of `COc1ccc(-c2cc(CN[C@H](C)c3ccccc3)ccc2OC)nn1` [(1R)-N-((4-(methyloxy)-3-(6-(methyloxy)-3-pyridazinyl)phenyl)methyl)-1-phenylethanamine], the EC50 is reported as ≤ 10 µM.

In the case of `COc1ccc(-c2cc(CN[C@H](C)c3cccc4ccccc34)ccc2OC)cn1` [(1R)-N-((4-(methyloxy)-3-(6-(methyloxy)-3-pyridinyl)phenyl)methyl)-1-(1-naphthalenyl)ethanamine], the EC50 is reported as ≤ 10 µM.

`COc1cccc([C@@H](C)NCc2ccc(OC)c(-c3ccc(OC)nc3)c2)c1` [(1R)-N-((4-(methyloxy)-3-(6-(methyloxy)-3-pyridinyl)phenyl)methyl)-1-(3-(methyloxy)phenyl)ethanamine] was tested, and the EC50 was ≤ 10 µM.

For `COc1ccc(CN[C@H](C)c2ccccc2)cc1-c1ccc(C(F)(F)F)nc1` [(1R)-N-((4-(methyloxy)-3-(6-(trifluoromethyl)-3-pyridinyl)phenyl)methyl)-1-phenylethanamine], the EC50 was ≤ 10 µM.

For `COc1ccc(CN[C@H](C)c2cccc3ccccc23)cc1-c1ccc(C)nc1` [(1R)-N-((4-(methyloxy)-3-(6-methyl-3-pyridinyl)phenyl)methyl)-1-(1-naphthalenyl)ethanamine], the EC50 was ≤ 10 µM.

In the case of `COc1ccc(CN[C@H](C)c2cccc3ccccc23)cc1-c1ccc2ncccc2c1` [(1R)-N-((4-(methyloxy)-3-(6-quinolinyl)phenyl)methyl)-1-(1-naphthalenyl)ethanamine], the EC50 is reported as ≤ 10 µM.

In the case of `COc1ccc(CN[C@H](C)c2ccccc2)cc1-c1ccc2ncccc2c1` [(1R)-N-((4-(methyloxy)-3-(6-quinolinyl)phenyl)methyl)-1-phenylethanamine], the EC50 is reported as ≤ 10 µM.

`COc1ccc(CN[C@H](C)c2cccc3ccccc23)cc1-c1ccc2nccnc2c1` [(1R)-N-((4-(methyloxy)-3-(6-quinoxalinyl)phenyl)methyl)-1-(1-naphthalenyl)ethanamine] was tested, and the EC50 was ≤ 10 µM.

`COc1ccc(CN[C@H](C)c2ccccc2)cc1-c1ccc2nccnc2c1` [(1R)-N-((4-(methyloxy)-3-(6-quinoxalinyl)phenyl)methyl)-1-phenylethanamine] was tested, and the EC50 was ≤ 10 µM.

In the case of `COc1cccc([C@@H](C)NCc2ccc(Cl)c(-c3cccnc3)c2)c1` [(1R)-N-((4-chloro-3-(3-pyridinyl)phenyl)methyl)-1-(3-(methyloxy)phenyl)ethanamine], the EC50 is reported as ≤ 10 µM.

In the case of `C[C@@H](NCc1ccc(Cl)c(-c2ccc(OCC(F)(F)F)nc2)c1)c1cccc2ccccc12` [(1R)-N-((4-chloro-3-(6-((2,2,2-trifluoroethyl)oxy)-3-pyridinyl)phenyl)methyl)-1-(1-naphthalenyl)ethanamine], the EC50 is reported as ≤ 10 µM.

In the case of `C[C@@H](NCc1ccc(C(F)(F)F)c(-c2ccc(C(F)(F)F)cc2)c1)c1cccc2ccccc12` [(1R)-N-((4′,6-bis(trifluoromethyl)-1,1′-biphenyl-3-yl)methyl)-1-(1-naphthalenyl)ethanamine], the EC50 is reported as ≤ 10 µM.

For `COc1cccc([C@@H](C)NCc2ccc(C(F)(F)F)c(-c3ccc(C(F)(F)F)cc3)c2)c1` [(1R)-N-((4′,6-bis(trifluoromethyl)-1,1′-biphenyl-3-yl)methyl)-1-(3-(methyloxy)phenyl)ethanamine], the EC50 was ≤ 10 µM.

`COc1cccc([C@@H](C)NCc2ccc(F)c(-c3ccc(F)cc3)c2)c1` [(1R)-N-((4′,6-difluoro-1,1′-biphenyl-3-yl)methyl)-1-(3-(methyloxy)phenyl)ethanamine] was tested, and the EC50 was ≤ 10 µM.

For `COc1ccc([C@@H](C)NCc2ccc(F)c(-c3ccc(F)cc3)c2)cc1` [(1R)-N-((4′,6-difluoro-1,1′-biphenyl-3-yl)methyl)-1-(4-(methyloxy)phenyl)ethanamine], the EC50 was ≤ 10 µM.

In the case of `COc1ccc(-c2cccc(CN[C@H](C)c3cccc4ccccc34)c2)cc1` [(1R)-N-((4′-(methyloxy)-1,1′-biphenyl-3-yl)methyl)-1-(1-naphthalenyl)ethanamine], the EC50 is reported as ≤ 10 µM.

For `COc1ccc(-c2cccc(CN[C@H](C)c3ccc4ccccc4c3)c2)cc1` [(1R)-N-((4′-(methyloxy)-1,1′-biphenyl-3-yl)methyl)-1-(2-naphthalenyl)ethanamine], the EC50 was ≤ 10 µM.

`COc1ccc(-c2cccc(CN[C@H](C)c3cccc(OC)c3)c2)cc1` [(1R)-N-((4′-(methyloxy)-1,1′-biphenyl-3-yl)methyl)-1-(3-(methyloxy)phenyl)ethanamine] was tested, and the EC50 was ≤ 10 µM.

`COc1ccc(-c2cccc(CN[C@H](C)c3ccc(OC)cc3)c2)cc1` [(1R)-N-((4′-(methyloxy)-1,1′-biphenyl-3-yl)methyl)-1-(4-(methyloxy)phenyl)ethanamine] was tested, and the EC50 was ≤ 10 µM.

`COc1ccc(CN[C@H](C)c2cccc3ccccc23)cc1-c1ccc(Cl)cc1` [(1R)-N-((4′-chloro-6-(methyloxy)-1,1′-biphenyl-3-yl)methyl)-1-(1-naphthalenyl)ethanamine] was tested, and the EC50 was ≤ 10 µM.

`COc1cccc([C@@H](C)NCc2ccc(OC)c(-c3ccc(Cl)cc3)c2)c1` [(1R)-N-((4′-chloro-6-(methyloxy)-1,1′-biphenyl-3-yl)methyl)-1-(3-(methyloxy)phenyl)ethanamine] was tested, and the EC50 was ≤ 10 µM.

With `COc1ccc(CN[C@H](C)c2ccccc2)cc1-c1ccc(Cl)cc1` [(1R)-N-((4′-chloro-6-(methyloxy)-1,1′-biphenyl-3-yl)methyl)-1-phenylethanamine] the EC50 was ≤ 10 µM.

`COc1cccc([C@@H](C)NCc2cccc(-c3ccc(F)cc3)c2)c1` [(1R)-N-((4′-fluoro-1,1′-biphenyl-3-yl)methyl)-1-(3-(methyloxy)phenyl)ethanamine] was tested, and the EC50 was ≤ 10 µM.

For `Cc1ccc([C@@H](C)NCc2cccc(-c3ccc(F)cc3)c2)cc1` [(1R)-N-((4′-fluoro-1,1′-biphenyl-3-yl)methyl)-1-(4-methylphenyl)ethanamine], the EC50 was ≤ 10 µM.

For `C[C@@H](NCc1cccc(-c2ccc(F)cc2)c1)c1ccccc1` [(1R)-N-((4′-fluoro-1,1′-biphenyl-3-yl)methyl)-1-phenylethanamine], the EC50 was ≤ 10 µM.

For `COc1ccc(CN[C@H](C)c2cccc(F)c2)cc1-c1ccc(F)cc1` [(1R)-N-((4′-fluoro-6-(methyloxy)-1,1′-biphenyl-3-yl)methyl)-1-(3-fluorophenyl)ethanamine], the EC50 was ≤ 10 µM.

`COc1ccc([C@@H](C)NCc2ccc(OC)c(-c3ccc(F)cc3)c2)cc1` [(1R)-N-((4′-fluoro-6-(methyloxy)-1,1′-biphenyl-3-yl)methyl)-1-(4-(methyloxy)phenyl)ethanamine] was tested, and the EC50 was ≤ 10 µM.

For `COc1ccc(CN[C@H](C)c2ccc(C)cc2)cc1-c1ccc(F)cc1` [(1R)-N-((4′-fluoro-6-(methyloxy)-1,1′-biphenyl-3-yl)methyl)-1-(4-methylphenyl)ethanamine], the EC50 was ≤ 10 µM.

In the case of `COCCOc1ccc(CN[C@H](C)c2cccc3ccccc23)cc1-c1ccc(C(F)(F)F)cc1` [(1R)-N-((6-((2-(methyloxy)ethyl)oxy)-4′-(trifluoromethyl)-1,1′-biphenyl-3-yl)methyl)-1-(1-naphthalenyl)ethanamine], the EC50 is reported as ≤ 10 µM.

With `COCCOc1ccc(CN[C@H](C)c2cccc(OC)c2)cc1-c1ccc(C(F)(F)F)cc1` [(1R)-N-((6-((2-(methyloxy)ethyl)oxy)-4′-(trifluoromethyl)-1,1′-biphenyl-3-yl)methyl)-1-(3-(methyloxy)phenyl)ethanamine] the EC50 was ≤ 10 µM.

For `COCCOc1ccc(CN[C@H](C)c2ccccc2)cc1-c1ccc(C(F)(F)F)cc1` [(1R)-N-((6-((2-(methyloxy)ethyl)oxy)-4′-(trifluoromethyl)-1,1′-biphenyl-3-yl)methyl)-1-phenylethanamine], the EC50 was ≤ 10 µM.
